# Measured values as given in patent publication US20190365645A1, “DRUG DELIVERY ARTICLES FOR GRAM-LEVEL DOSING” (Massachusetts Institute of Technology, priority 2018, published 2019).
# Assays:
# [1] = In vitro drug release from drug-vinylpolysiloxane pills/articles (simulated gastric fluid or water); type: physicochemical; details: for in vitro release from drug-VPS pills: SGF (isoniazid and rifampicin in water)
# Experimental: Articles with a series of 30 pills were made so that there was 1 gram of doxycycline hyclate in 2 grams of vinylpolysiloxane. Pills were coated with either cellulose acetate butyrate (CAB) or with Eudragit RS PO. A control with no coatings was also made. The articles were immersed in simulated gastric fluid, and the cumulative release of doxycycline hyclate was measured for more than 26 days.
# Thickness of coatings was tuned by increasing the spray volume.
# Individual pills made of drug-VPS for doxycycline hyclate, isoniazid, ethambutol, pyrazinamide, moxifloxacin were used to evaluate long-term release kinetics in SGF. Pill formulations were incubated in a New Brunswick Innova 44 shaking incubator (Eppendorf) at 37° C. and 200 rpm in 50 mL of SGF for up to 28 days, with solution exchanges at specified time intervals. Drug concentrations were then analyzed using a High-Performance Liquid Chromatography (HPLC). Because of the lack of a validated HPLC method for evaluating isoniazid in SGF, water was used to study differences between isoniazid formulations. Three intact rifampicin devices were fabricated by loading 2 grams of drug into VPS pills. The devices were incubated in 500 mL of nanopure water for up to 26 days in a shaking incubator at 37° C. and 200 rpm, with media exchange at specified time intervals. […] The drug concentrations samples were then measured on an Infinite M200Pro (Tecan) reader (absorbance, 475 nm).
# An Agilent 1260 Infinity II HPLC system (Agilent Technologies, Inc.) equipped with a Model 1260 quaternary pump, Model 1260 High Performance autosampler, Model 1260 thermostat, Model 1260 Infinity Thermostatted Column Compartment control module, and Model 1260 diode array detector was utilized. Data processing and analysis was performed using OpenLab CDS ChemStation (Agilent Technologies, Inc.). All solvents used were purchased from Sigma-Aldrich Corporation. For doxycycline hyclate, chromatographic isocratic separation was carried out on an Agilent 4.6×50 mm AdvanceBio RP-mAb SB-C8 analytical column with 3.5 μm particles, maintained at 55° C. The optimized mobile phase consisted of 20 mM dipotassium phosphate buffer and acetonitrile (pH 6 adjusted with triethylamine) [60:40 (v/v)] at a flow rate of 0.85 mL/min over a 4 min run time. The injection volume was 5 μl, and the selected ultraviolet (UV) detection wavelength was 293 nm.
# [2] = pig, in vivo
# [3] = reason water was used as release medium; cited from earlier work
molecule,measurement,setting,value
CC[C@@H](CO)NCCN[C@@H](CC)CO [ethambutol],in vitro release from drug-VPS pills,[1],able to release
NNC(=O)c1ccncc1 [isoniazid],in vitro release from drug-VPS pills,[1],able to release
NC(=O)c1cnccn1 [pyrazinamide],in vitro release from drug-VPS pills,[1],able to release
CO[C@H]1/C=C/O[C@@]2(C)Oc3c(C)c(O)c4c(O)c(c(/C=N/N5CCN(C)CC5)c(O)c4c3C2=O)NC(=O)/C(C)=C\C=C\[C@H](C)[C@H](O)[C@@H](C)[C@@H](O)[C@@H](C)[C@H](OC(C)=O)[C@@H]1C [rifampicin],duration of detectable serum concentrations,[2],for a week
same,stability in acid,[3],rapidly degrades in acid
doxycycline hyclate,duration of drug release (cumulative release),"[1]; articles of 30 pills, 1 gram drug in 2 grams vinylpolysiloxane, simulated gastric fluid",more than 26 days
same,release kinetic profile,"[1]; formulations coated with Eudragit RS 100, SGF",linear kinetic profile with limited burst release
same,duration drug detectable in serum,[2],at least 28 days
same,"duration of sustained drug release, non-zero concentrations in the blood",[2],at least 7 days
same,time after which no drug was detectable in serum,[2],3 ays
same,time to detectable serum concentrations,[2],≤ 15 min
